One data set concerns the target T1, rat mGlu 5a receptor (Rattus norvegicus, UniProt P31424).
T1 construct: expressed in transfected cells; host or cells: EBNA cells (transient transfection)
In words: [Ca2+]i measurement (FLIPR) on mGlu 5a transfected EBNA cells, antagonist mode. Type of data set: cell-based. Conditions: rat mGlu 5a transiently transfected EBNA cells; Fluo 3-AM; tested against 10 μM glutamate as agonist. As to the method:
The pharmacological activity of the compounds was tested using the following method:
cDNA encoding rat mGlu 5a receptor was transiently transfected into EBNA cells using a procedure described by E. -J. Schlaeger and K. Christensen (Cytotechnology 1998, 30, 71–83). [Ca^2+]i measurements were performed on mGlu 5a transfected EBNA cells after incubation of the cells with Fluo 3-AM (obtainable by FLUKA, 0.5 μM final concentration) for 1 hour at 37° C. followed by 4 washes with assay buffer (DMEM supplemented with Hank's salt and 20 mM HEPES. [Ca^2+]i measurements were done using a fluorometric imaging plate reader (FLIPR, Molecular Devices Corporation, La Jolla, Calif., USA). When compounds were evaluated as antagonists they were tested against 10 μM glutamate as agonist.
The inhibition (antagonists) curves were fitted with a four parameter logistic equation giving IC50, and Hill coefficient using the iterative non linear curve fitting software Origin (Microcal Software Inc., Northampton, Mass., USA).

We go through 17 compounds from US7138404B2, “4-aminopyrimidine derivatives” (Hoffmann-La Roche Inc., priority 2001, dated 2006).

pIC50: −log10 of the molar value.

T1 sequence (P31424 21-1171 isoform P31424-2 limits assumed): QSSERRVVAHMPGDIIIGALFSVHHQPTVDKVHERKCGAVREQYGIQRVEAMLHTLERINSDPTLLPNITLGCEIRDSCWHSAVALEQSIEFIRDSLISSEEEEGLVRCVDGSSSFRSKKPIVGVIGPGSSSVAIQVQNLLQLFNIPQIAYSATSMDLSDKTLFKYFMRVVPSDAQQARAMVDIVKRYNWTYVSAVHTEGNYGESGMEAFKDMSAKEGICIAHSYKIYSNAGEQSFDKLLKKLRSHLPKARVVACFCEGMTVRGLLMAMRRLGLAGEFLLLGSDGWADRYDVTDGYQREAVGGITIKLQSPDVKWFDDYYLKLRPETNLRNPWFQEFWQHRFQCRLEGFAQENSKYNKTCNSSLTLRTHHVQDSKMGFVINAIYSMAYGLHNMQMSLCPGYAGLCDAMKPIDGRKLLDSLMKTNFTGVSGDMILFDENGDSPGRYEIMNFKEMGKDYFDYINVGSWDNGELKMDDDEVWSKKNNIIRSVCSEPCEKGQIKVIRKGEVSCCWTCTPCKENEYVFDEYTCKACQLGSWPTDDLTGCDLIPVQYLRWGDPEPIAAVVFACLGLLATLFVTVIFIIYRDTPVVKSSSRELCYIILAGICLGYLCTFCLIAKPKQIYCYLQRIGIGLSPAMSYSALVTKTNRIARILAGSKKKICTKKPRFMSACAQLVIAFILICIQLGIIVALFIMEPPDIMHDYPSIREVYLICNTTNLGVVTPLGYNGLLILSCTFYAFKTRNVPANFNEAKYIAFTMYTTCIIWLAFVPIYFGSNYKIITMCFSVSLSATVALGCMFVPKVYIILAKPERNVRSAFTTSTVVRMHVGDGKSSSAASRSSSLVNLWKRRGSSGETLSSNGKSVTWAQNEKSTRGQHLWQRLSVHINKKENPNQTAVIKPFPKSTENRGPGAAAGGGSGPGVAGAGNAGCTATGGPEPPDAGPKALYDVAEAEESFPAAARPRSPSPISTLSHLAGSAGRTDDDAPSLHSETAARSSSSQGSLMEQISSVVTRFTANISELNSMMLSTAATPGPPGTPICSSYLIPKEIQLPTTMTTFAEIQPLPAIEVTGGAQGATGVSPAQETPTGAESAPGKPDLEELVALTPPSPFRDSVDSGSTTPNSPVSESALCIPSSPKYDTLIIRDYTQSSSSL

The pIC50 is the IC50 on a negative log10 scale, so that one unit is a factor of ten. Low readings indicate a high IC50, high ones a low IC50. The compound `CCOC(=O)CSc1ncc(Cc2ccccc2)c(N)n1` [Example 3, (4-Amino-5-benzyl-pyrimidin-2-ylsulfanyl)-acetic acid ethyl ester] showed a pIC50 on rat mGlu 5a receptor of 6.85. Compound `CCOC(=O)CSc1ncc(Cc2cccn2C)c(N)n1` [Example 4, [4-Amino-5-(1-methyl-1H-pyrrol-2-ylmethyl)-pyrimidin-2-ylsulfanyl]-acetic acid ethyl ester] showed a negative logarithm of the IC50 (pIC50) at rat mGlu 5a receptor of 6.42. The same measure, in the same setting: the value for `CCOC(=O)CSc1ncc(-c2ccc(Cl)cc2Cl)c(N)n1` [Example 5, [4-Amino-5-(2,4-dichloro-phenyl)-pyrimidin-2-ylsulfanyl]-acetic acid ethyl ester] was 5.41.

Consider `CCOC(=O)CSc1ncc(Cc2ccc(Br)cc2)c(N)n1` [Example 6, [4-Amino-5-(4-bromo-benzyl)-pyrimidin-2-ylsulfanyl]-acetic acid ethyl ester], for which the negative logarithm of the IC50 (pIC50) at rat mGlu 5a receptor was 6.74. As to `C#CCSc1ncc(Cc2cccs2)c(N)n1` [Example 8, 2-Prop-2-ynylsulfanyl-5-thiophen-2-ylmethyl-pyrimidin-4-ylamine], on rat mGlu 5a receptor, the negative-log IC50 (pIC50) was 5.86. The same measure, in the same setting: the value for `C=CCSc1ncc(Cc2cccs2)c(N)n1` [Example 9, 2-Allylsulfanyl-5-thiophen-2-ylmethyl-pyrimidin-4-ylamine] was 5.55; that for `Nc1nc(SCc2ncon2)ncc1Cc1cccs1` [Example 11, 2-([1,2,4]Oxadiazol-3-ylmethylsulfanyl)-5-thiophen-2-ylmethyl-pyrimidin-4-ylamine] was 6.40; that for `CCOC(=O)CSc1ncc(Cc2ccsc2)c(N)n1` [Example 12, (4-Amino-5-thiophen-3-ylmethyl-pyrimidin-2-ylsulfanyl)-acetic acid ethyl ester] was 6.74.

In the case of `CCOC(=O)CSc1ncc(Cc2ccoc2)c(N)n1` [Example 13, (4-Amino-5-furan-3-ylmethyl-pyrimidin-2-ylsulfanyl)-acetic acid ethyl ester], the pIC50 at rat mGlu 5a receptor is 6.80. For the compound `CCOC(=O)CSc1ncc(C(=O)OCC)c(N)n1` [Example 19, 4-Amino-2-ethoxycarbonylmethylsulfanyl-pyrimidine-5-carboxylic acid ethyl ester], the pIC50 at rat mGlu 5a receptor is 6.57. Same read-out and setting: the figure for `CCNc1nc(SCC(=O)OCC)ncc1Cc1cccs1` [Example 21, (4-Ethylamino-5-thiophen-2-ylmethyl-pyrimidin-2-ylsulfanyl)-acetic acid ethyl ester] is 6.22. Same read-out and setting: the figure for `C=CCOC(=O)CSc1ncc(Cc2ccccc2)c(N)n1` [Example 22, (4-Amino-5-benzyl-pyrimidin-2-ylsulfanyl)-acetic acid allyl ester] is 6.92; for `CC1CC1COC(=O)CSc1ncc(Cc2ccccc2)c(N)n1` (centres unmarked) [Example 24, (4-Amino-5-benzyl-pyrimidin-2-ylsulfanyl)-acetic acid 2-methyl-cyclopropylmethyl ester] it is 6.20; for `Nc1nc(SCC(=O)OCC2CCC2)ncc1Cc1ccccc1` [Example 25, (4-Amino-5-benzyl-pyrimidin-2-ylsulfanyl)-acetic acid cyclobutylmethyl ester] it is 5.84.

For `Nc1nc(SCC(=O)OCC2CC2)ncc1Cc1ccccc1` [Example 29, (4-Amino-5-benzyl-pyrimidin-2-ylsulfanyl)-acetic acid cyclopropylmethyl ester], the pIC50 on rat mGlu 5a receptor is 6.70.

For `CCOC(=O)CSc1ncc(Cc2cccs2)c(NCC(C)C)n1` [Example 31], the negative logarithm of the IC50 (pIC50) on rat mGlu 5a receptor is 6.80.

The term melting point denotes the temperature, or range, at which the solid turns liquid. For the compound `Nc1nc(SCc2nc(C3CC3)no2)ncc1Cc1ccccc1` [Example 33, 5-Benzyl-2-(3-cyclopropyl-[1,2,4]oxadiazol-5-ylmethylsulfanyl)-pyrimidin-4-ylamine], the melting point amounted to 94 °C.
